Publication PMC4581723, “Evaluation of In Vitro Activity of the Class I PI3K Inhibitor Buparlisib (BKM120) in Pediatric Bone and Soft Tissue Sarcomas” (PLoS ONE, 2015)
Where two headings read alike, the source gives them in different places.

How the values were obtained:
MCF-7 = test: Cell viability assay (MTT), 72 h; conditions: read-out: Buparlisib cell viability IC50, MCF-7 (breast), PIK3CA E545K
Description: Cells were seeded in 96-well plates and drugs were added after overnight incubation, with each treatment condition performed in triplicate. After drug treatment, 10 μl of 5 mg/ml MTT (3-(4,5-dimethylthiazolyl-2)-2, 5-diphenyltetrazolium bromide) in PBS was added to cells and allowed to incubate for 2–4 hours at 37°C. […] Plate absorbance was read at 595 nm using a Bio-rad microplate reader. Percent viability was calculated by normalizing absorbance values to those from cells grown in media without drug after background subtraction. IC50 values were calculated by fitting dose-response curves to a four-parameter, variable slope sigmoid dose-response model (Prism Software, GraphPad).

KHOS 312H = test: Cell viability assay (MTT), 72 h; format: cell-based; conditions: KHOS 312H (OS), read-out: Buparlisib cell viability IC50
[1] = system: ES (TC-174, A4573), OS (KHOS, MNNG), and RMS (RD) colonies; test: Soft agar assay (anchorage independent growth); format: cell-based; conditions: 14 days
Text: After 14 days of growth, colonies were stained with 0.005% crystal violet, imaged, and quantified using ImageJ. […] Increasing concentrations reduced both soft agar colony number and size (Fig 5A). Cell growth was inhibited within a narrower range than observed for anchorage dependent growth. […] (A) Plot of number and size of ES (TC-174, […]), OS (KHOS, MNNG), and RMS (RD) colonies formed in soft agar in the presence of DMSO or increasing concentrations of buparlisib. Columns represent the average of three replicates, error bars represent standard deviation. (B) Representative pictures of TC-174 soft agar colonies. (C) Immunoblot analysis of cleaved PARP in ES (TC-174, TC-32, […]), OS (KHOS), and RMS (RD, SJCRH30) treated with increasing doses of buparlisib for 24 hours. (D) Cell cycle analysis after 24 hours of buparlisib treatment of ES (TC-174, […]), OS (KHOS), and RMS (RD) cell lines. Data are the mean of two independent experiments.

SJSA = test: Cell viability assay (MTT), 72 h; format: cell-based; conditions: SJSA (OS), PIK3CA WT, read-out: Buparlisib cell viability IC50
phospho-4E-BP1 (T37/46) = test: Immunoblot of signaling downstream of mTORC1; format: cell-based
Description: (§1) Cells were incubated for approximately one hour on ice in lysis buffer (50 mM Tris pH 7.6, 0.5% NP-40, 10% glycerol, 30 mM NaCl, 1 mM EDTA) supplemented with Complete Mini EDTA-free protease inhibitor cocktail (Roche), 1 mM Na3VO4, and 1 mM NaF. […] Secondary antibodies conjugated to HRP were sheep anti-mouse IgG from GE Healthcare and goat anti-rabbit IgG from Santa Cruz Biotechnology. Secondary antibodies conjugated to infrared dyes were IRDye 800CW goat anti-mouse IgG and IRDye 680RD goat anti-rabbit IgG from LI-COR Biosciences. Fluorescent westerns were imaged using the Odyssey Infrared Imaging System (LI-COR Biosciences). Signals were quantified by measuring the integrated intensity values of each band using Odyssey software (LI-COR Biosciences).
(§2) We next evaluated the ability of buparlisib to inhibit cellular signaling downstream of PI3K. Increasing doses were added to cells and phosphorylation of signaling molecules was examined by immunoblot after one hour of treatment (Fig 2A). […] Phospho-Akt levels were normalized to levels of total Akt and fit to dose-response curves to calculate the half maximal inhibitory concentration (IC50) (Fig 2B).
(§3) Each data point represents the average of at least three independent experiments.

phospho-p70 S6K (T389) = test: Immunoblot of signaling downstream of mTORC1; format: cell-based; conditions: increasing doses; one hour; compared with 4E-BP1
Description: as §1, §2, §3

OS 187 = test: Cell viability assay (MTT), 72 h; format: cell-based; conditions: OS 187 (OS), read-out: Buparlisib cell viability IC50
HOS = test: Cell viability assay (MTT), 72 h; format: cell-based; conditions: Homo sapiens, HOS (OS), PIK3CA WT, read-out: Buparlisib cell viability IC50
phospho-Akt (S473) = test: Immunoblot (quantitative) of Akt phosphorylation; format: cell-based
RDES = test: Cell viability assay (MTT), 72 h; format: cell-based; conditions: RD-ES, PIK3CA WT, read-out: Buparlisib cell viability IC50
[2] = system: pediatric sarcoma cell lines; test: Cell viability assay (MTT), panel of sarcoma cell lines; format: cell-based

Nc1cc(C(F)(F)F)c(-c2cc(N3CCOCC3)nc(N3CCOCC3)n2)cn1 [Buparlisib]
IC50 (MCF-7; Homo sapiens, MCF7, 72 h): 173 nM
IC50 (MCF-7): 173 nM
IC50 (KHOS 312H): 1590 nM
concentrations at which no soft agar colony formation occurred [1]: greater than 2 μM
concentrations with minimal effects on soft agar colony formation [1]: less than 1 μM
IC50 (SJSA): 1450 nM
Inhibition of phospho-4E-BP1 (phospho-4E-BP1 (T37/46); increasing doses, one hour): only observed at high buparlisib concentrations
phosphorylation of 4E-BP1 (phospho-4E-BP1 (T37/46); treatment with both buparlisib and rapamycin, A4573 cells): more potently suppressed
Phosphorylation of S6K (phospho-p70 S6K (T389)): more potently inhibited
IC50 (OS 187): 1540 nM
IC50 (HOS): 1840 nM
phospho-Akt levels compared to each drug alone (phospho-Akt (S473); combination with NVP-AEW541, A4573 cells, one hour of treatment): reduced phospho-Akt levels
time to maximum inhibition of Akt (phospho-Akt (S473); time course 5 min to 24 h, 1 μM (3 μM in A4573)): approximately one
IC50 (RDES): 1120 nM
IC50 ([2]; ES and RMS cell lines in general, 72 h, read-out: cell viability IC50): ~1000 nM
concentrations at which synergistic effects were observed ([2]; buparlisib concentration in combination therapy): under 1 μM
combination effect on cell viability ([2]; combined with rapamycin, four cell lines (TC-32, A673, RD, A4573), 72 h): Synergy
combination effect on cell viability ([2]; combined with trametinib, cell lines with (A673, RD) and without (TC-32, A4573) MAPK pathway mutations, 72 h): Synergistic effects were only observed in cell lines that contained MAPK pathway mutations
combination effect on cell viability ([2]; in combination with NVP-AEW541, ES and RMS cell lines, 72 h): Synergy
combination effect on cell viability ([2]; in combination with NVP-AEW541, OS cell lines (MNNG), 72 h): additive effects
IC50 ([2]; median over sarcoma cell lines, 72 h, read-out: median IC50 value, cellular proliferation): 1100 nM
combination effect on cell viability ([2]; sequential treatment doxorubicin (4 h) then buparlisib (72 h), ratio 20:3, ES and OS cell lines): additive
